Data taken from ChEMBL document CHEMBL1147299, “12-epi-teuscordonin and other neoclerodanes from Teucrium bicolor” (J Nat Prod, 1989).

tested on: Artemia salina; test: Toxicity to Artemia salina after 24 hrs; assay type: organism-based; settings: in vivo

Row | Structure (SMILES) | LC50 [ppm]
1 | C[C@@H]1C[C@@H]2OC(=O)C3=C2[C@H](CCC3)[C@@]12C[C@@H](c1ccoc1)OC2=O [TEUCVIN] | > 500
2 | C[C@@H]1C[C@@H](O)[C@@]23COC(=O)[C@@H]2CCC[C@@H]3[C@@]12C[C@@H](c1ccoc1)OC2=O | > 500
3 | CC(=O)OC[C@@]12[C@@H](OC(C)=O)C[C@@H](C)[C@]3(C[C@H](c4ccoc4)OC3=O)[C@H]1CCC[C@]21CO1 [MONTANIN C] | 66.4
